The text below walks through data of patent publication EP2272817A1, “PAI-1 INHIBITOR” (Institute of Medicinal Molecular Design, Inc., priority 2008, dated 2009).

Sequence of recombinant human PAI-1 (P05121 24-402): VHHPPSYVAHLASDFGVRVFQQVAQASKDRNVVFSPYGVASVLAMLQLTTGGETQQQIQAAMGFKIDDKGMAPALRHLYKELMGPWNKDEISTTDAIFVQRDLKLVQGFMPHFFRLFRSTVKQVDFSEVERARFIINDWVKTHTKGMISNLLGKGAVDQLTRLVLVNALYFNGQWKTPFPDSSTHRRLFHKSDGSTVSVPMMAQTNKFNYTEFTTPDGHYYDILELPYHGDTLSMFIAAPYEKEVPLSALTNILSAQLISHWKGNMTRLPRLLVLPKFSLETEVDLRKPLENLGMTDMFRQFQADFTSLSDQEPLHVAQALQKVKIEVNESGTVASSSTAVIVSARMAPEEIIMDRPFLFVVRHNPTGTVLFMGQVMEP

The target in the test is recombinant human PAI-1 (Homo sapiens, UniProt P05121). Kind of test: Test Example 2: Human PAI-1 Inhibitory Activity (pH 7.4 HEPES buffer, 10 minutes incubation with two-chain tPA). Type of test: biochemical. More on the design: purchased Molecular Innovations, Inc. Conditions: read-out: Inhibition Rate of PAI-1 Activity (%). On the procedure: 0.1 M HEPES, 0.1 M NaCl. 1 mM EDTA. 0.1 % Polyethylene glycol 8,000 (Hampton Research Corporation),
2 mM Dimethyldecylphoshine oxide [Apo-10] (Fluka Corporation)
For orientation: inhibition means the change of the read-out against control, counted positive when it falls. In the case of `CC(C)(C)c1cccc(Oc2cc(-c3cccc(OC(F)(F)F)c3)ccc2CCC(=O)O)c1` [Compound 515], the inhibition at 0.1 µM amounted to 12%, the inhibition at 0.3 µM was determined as 16%, the inhibition at 1 µM was 86% and the inhibition at 3 µM is over 99%.

With `CC(C)c1ccc(Sc2cc(-c3ccc(OC(F)(F)F)cc3)ccc2/C=C/C(=O)O)cc1` [Compound 516], the inhibition at 0.1 µM is 16%, the inhibition at 0.3 µM turned out to be 39%, the inhibition at 1 µM stood at 98% and the inhibition at 3 µM was over 99%.

In the case of `CC(C)(C)c1ccc(Sc2cc(-c3ccc(OC(F)(F)F)cc3)ccc2CCC(=O)O)cc1` [Compound 517], the inhibition at 0.1 µM was 20%, the inhibition at 0.3 µM was found to be 50%, the inhibition at 1 µM was found to be 95% and the inhibition at 3 µM is over 99%.

Turning to `CC(C)c1ccc(-c2ccc(/C=C/C(=O)O)c(Oc3ccc(C(C)(C)C)cc3)c2)cc1` [Compound 518], the inhibition at 0.1 µM is 14%, the inhibition at 0.3 µM turned out to be 54%, the inhibition at 1 µM is over 99% and the inhibition at 3 µM was over 99%.

For `CC(C)c1ccc(-c2ccc(CCC(=O)O)c(Oc3ccc(C(C)(C)C)cc3)c2)cc1` [Compound 519], the inhibition at 0.1 µM is 1%, the inhibition at 0.3 µM was determined as 19%, the inhibition at 1 µM is over 99% and the inhibition at 3 µM was over 99%.

For the compound `CC(C)c1ccc(-c2ccc(/C=C/C(=O)O)c(Sc3ccc(C(C)(C)C)cc3)c2)cc1` [Compound 520], the inhibition at 0.1 µM worked out at 14%, the inhibition at 0.3 µM was 72%, the inhibition at 1 µM is over 99% and the inhibition at 3 µM was over 99%.

Turning to `CCC(CC)Oc1ccc(-c2ccc(/C=C/C(=O)O)c(Oc3ccc(C(C)(C)C)cc3)c2)cc1` [Compound 521], the inhibition at 0.1 µM was found to be 25%, the inhibition at 0.3 µM is 82%, the inhibition at 1 µM is over 99% and the inhibition at 3 µM was over 99%.

As to `CCC(CC)Oc1ccc(-c2ccc(CCC(=O)O)c(Oc3ccc(C(C)(C)C)cc3)c2)cc1` [Compound 522], the inhibition at 0.1 µM amounted to 33%, the inhibition at 0.3 µM stood at 71%, the inhibition at 1 µM stood at 98% and the inhibition at 3 µM came to 98%.

On to `CCCCOc1ccc(Oc2cc(-c3ccc(OC(F)(F)F)cc3)ccc2OCC(=O)O)cc1` [Compound 523], for which the inhibition at 0.1 µM is 11%, the inhibition at 0.3 µM stood at 15%, the inhibition at 1 µM came out at 78% and the inhibition at 3 µM was over 99%.

As to `CC(C)(C)c1ccc(Oc2cc(-c3ccc(OC(F)(F)F)cc3)ccc2CCCC(=O)O)cc1` [Compound 527], the inhibition at 0.1 µM came out at 6%, the inhibition at 0.3 µM is 36%, the inhibition at 1 µM came out at 98% and the inhibition at 3 µM is over 99%.

For the compound `O=C(O)/C=C/c1ccc(-c2ccc(OC(F)(F)F)cc2)cc1Sc1ccccc1` [Compound 528], the inhibition at 0.1 µM was found to be 8%, the inhibition at 0.3 µM was 12%, the inhibition at 1 µM was 51% and the inhibition at 3 µM is 97%.

Consider `CC(C)(C)c1ccc(Sc2cc(-c3ccc(OC(F)(F)F)cc3)ccc2/C=C\C(=O)O)cc1` [Compound 529], for which the inhibition at 0.1 µM worked out at 18%, the inhibition at 0.3 µM was 29%, the inhibition at 1 µM came to 94% and the inhibition at 3 µM was over 99%.

As for `CC(C)(C)c1ccc(Sc2cc(-c3ccc(OC(F)(F)F)cc3)ccc2CC(=O)O)cc1` [Compound 530], the inhibition at 0.1 µM was 17%, the inhibition at 0.3 µM worked out at 21%, the inhibition at 1 µM is 93% and the inhibition at 3 µM is over 99%.

Regarding `CC(C)(C)c1ccc(Oc2cc(Nc3ccc(OC(F)(F)F)cc3)ccc2/C=C/C(=O)O)cc1` [Compound 531], the inhibition at 0.1 µM came to 3%, the inhibition at 0.3 µM amounted to 38%, the inhibition at 1 µM came out at 94% and the inhibition at 3 µM is 96%.

Consider `CC(C)(C)c1ccc(Oc2cc(Nc3ccc(OC(F)(F)F)cc3)ccc2CCC(=O)O)cc1` [Compound 532], for which the inhibition at 0.1 µM amounted to 12%, the inhibition at 0.3 µM came out at 59%, the inhibition at 1 µM is over 99% and the inhibition at 3 µM is over 99%.

`CCCCN(CC(=O)O)c1ccc(-c2ccc(OC(F)(F)F)cc2)cc1Oc1ccc(C(C)(C)C)cc1` [Compound 533]: the inhibition at 0.1 µM was determined as 25%, the inhibition at 0.3 µM was found to be 83%, the inhibition at 1 µM was determined as 97% and the inhibition at 3 µM was 97%.

For the compound `CN(CC(=O)O)c1ccc(-c2ccc(OC(F)(F)F)cc2)cc1Oc1ccc(C(C)(C)C)cc1` [Compound 534], the inhibition at 0.1 µM worked out at 13%, the inhibition at 0.3 µM came out at 21%, the inhibition at 1 µM amounted to 84% and the inhibition at 3 µM is over 99%.

`CC(C)(C)c1ccc(Oc2cc(Oc3ccc(OC(F)(F)F)cc3)ccc2OCC(=O)O)cc1` [Compound 538]: the inhibition at 0.1 µM came to 0%, the inhibition at 0.3 µM was determined as 12%, the inhibition at 1 µM turned out to be 87% and the inhibition at 3 µM came out at 98%.

As to `O=C(O)/C=C/c1cc(-c2ccc(OC(F)(F)F)cc2)ccc1OCCCCCOc1ccc(-c2ccc(OC(F)(F)F)cc2)cc1/C=C/C(=O)O` [Compound 543], the inhibition at 0.1 µM worked out at 0%, the inhibition at 0.3 µM is 1%, the inhibition at 1 µM was 73% and the inhibition at 3 µM was determined as 94%.

With `O=C(O)CCc1cc(-c2ccc(OC(F)(F)F)cc2)ccc1OCCCCCOc1ccc(-c2ccc(OC(F)(F)F)cc2)cc1CCC(=O)O` [Compound 544], the inhibition at 0.1 µM was found to be 0%, the inhibition at 0.3 µM came to 3%, the inhibition at 1 µM was found to be 56% and the inhibition at 3 µM came to 92%.

Consider `CC(C)(C)c1ccc(Sc2cc(-c3ccc(OC(F)(F)F)cc3)ccc2C(=O)O)cc1` [Compound 547], for which the inhibition at 0.1 µM was 4%, the inhibition at 0.3 µM was found to be 17%, the inhibition at 1 µM was determined as 97% and the inhibition at 3 µM is over 99%.

In the case of `CC(C)(C)c1ccc(Sc2cc(-c3ccc(OC(F)(F)F)cc3)ccc2C(=O)C(=O)O)cc1` [Compound 548], the inhibition at 0.1 µM was found to be 0%, the inhibition at 0.3 µM came to 16%, the inhibition at 1 µM worked out at 95% and the inhibition at 3 µM is over 99%.

As to `CC(C)(C)c1ccc(C(=O)c2cc(-c3ccc(OC(F)(F)F)cc3)ccc2OCC(=O)O)cc1` [Compound 549], the inhibition at 0.1 µM turned out to be 23%, the inhibition at 0.3 µM came to 22%, the inhibition at 1 µM came to 84% and the inhibition at 3 µM was over 99%.

On to `CC(C)(C)c1ccc(Cc2cc(-c3ccc(OC(F)(F)F)cc3)ccc2OCC(=O)O)cc1` [Compound 550], for which the inhibition at 0.1 µM amounted to 0%, the inhibition at 0.3 µM came out at 2%, the inhibition at 1 µM turned out to be 81% and the inhibition at 3 µM was over 99%.

Regarding `CC(C)(C)c1ccc(CCc2cc(-c3ccc(OC(F)(F)F)cc3)ccc2OCC(=O)O)cc1` [Compound 551], the inhibition at 0.1 µM was 0%, the inhibition at 0.3 µM turned out to be 4%, the inhibition at 1 µM was 92% and the inhibition at 3 µM was over 99%.

In the case of `O=C(O)CC(=O)N(Cc1ccccc1)c1ccc(-c2ccc(OC(F)(F)F)cc2)cc1F` [Compound 602], the inhibition at 1 µM stood at 9%, the inhibition at 3 µM amounted to 18%, the inhibition at 10 µM was 78% and the inhibition at 25 µM is over 99%.

Consider `CC(C)(C)c1ccc(CN(C(=O)CCCC(=O)O)c2ccc(-c3ccc(OC(F)(F)F)cc3)cc2)cc1` [Compound 604], for which the inhibition at 1 µM was found to be 0%, the inhibition at 3 µM worked out at 20%, the inhibition at 10 µM is 36% and the inhibition at 25 µM was 46%.

In the case of `CC(C)(C)c1ccc(CN(C(=O)CC(=O)O)c2ccc(-c3ccc(OC(F)(F)F)cc3)cc2)cc1` [Compound 608], the inhibition at 1 µM worked out at 11%, the inhibition at 3 µM amounted to 59%, the inhibition at 10 µM was 95% and the inhibition at 25 µM was found to be 95%.

In the case of `CC(C)(C)c1ccc(N(CC(=O)O)c2ccccc2Oc2ccc(OC(F)(F)F)cc2)cc1` [Compound 610], the inhibition at 1 µM was determined as 49%, the inhibition at 3 µM was 94%, the inhibition at 10 µM was determined as 97% and the inhibition at 25 µM turned out to be 86%.

In the case of `O=C(O)C(=O)N(Cc1ccc(-c2ccc(OC(F)(F)F)cc2)cc1)c1ccccc1` [Compound 611], the inhibition at 1 µM is 5%, the inhibition at 3 µM came out at 13%, the inhibition at 10 µM was 45% and the inhibition at 25 µM came to 81%.

As for `CC(C)(C)c1ccc(N(Cc2ccc(-c3ccccc3)cc2)C(=O)C(=O)O)cc1` [Compound 612], the inhibition at 1 µM is 7%, the inhibition at 3 µM is 25%, the inhibition at 10 µM came to 84% and the inhibition at 25 µM was over 99%.

Take `CC(C)(C)c1ccc(-c2ccc(CN(C(=O)C(=O)O)c3ccc(OC(F)(F)F)cc3)cc2)cc1` [Compound 615]: the inhibition at 1 µM came out at 43%, the inhibition at 3 µM was 98%, the inhibition at 10 µM was over 99% and the inhibition at 25 µM was determined as 95%.

As for `CC(C)(C)c1ccc(CN(C(=O)C(=O)O)c2ccc(C(=O)Nc3ccc(OC(F)(F)F)cc3)cc2)cc1` [Compound 617], the inhibition at 1 µM was 6%, the inhibition at 3 µM is 64%, the inhibition at 10 µM was over 99% and the inhibition at 25 µM is over 99%.

For the compound `CN(C(=O)c1ccc(N(Cc2ccc(C(C)(C)C)cc2)C(=O)C(=O)O)cc1)c1ccc(OC(F)(F)F)cc1` [Compound 618], the inhibition at 1 µM came out at 0%, the inhibition at 3 µM was determined as 24%, the inhibition at 10 µM turned out to be 78% and the inhibition at 25 µM is over 99%.
